Here are results for two compounds from ChEMBL document CHEMBL1145863, “Design and synthesis of dihydrofolate reductase inhibitors encompassing a bridging ester group. Evaluation in a mouse colitis model” (J Med Chem, 2003).

This experiment has as its target T1, Dihydrofolate reductase (Rattus norvegicus, UniProt Q920D2).
T1 sequence (Q920D2 whole entry): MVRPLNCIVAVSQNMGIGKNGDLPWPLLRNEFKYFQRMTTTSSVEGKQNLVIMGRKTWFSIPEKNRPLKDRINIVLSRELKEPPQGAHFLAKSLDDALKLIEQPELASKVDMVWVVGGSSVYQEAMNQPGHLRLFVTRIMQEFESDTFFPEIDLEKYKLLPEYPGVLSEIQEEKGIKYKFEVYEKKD
Nature of the experiment: Inhibition of rat liver Dihydrofolate reductase (rlDHFR).

Turning to `Nc1nc(N)c2cc(COC(=O)c3ccc(C(=O)N[C@H](CCC(=O)O)C(=O)O)cc3)ccc2n1`, it took 0.15 µM to reach half-maximal inhibition (IC50).
For `Nc1nc(N)c2cc(COC(=O)c3ccc(C(=O)N[C@@H](CCCC(=O)O)C(=O)O)cc3)ccc2n1`, the IC50 is 0.16 µM.

What is called IC50 is the concentration that gives 50% inhibition. Lower therefore signals greater potency in that assay.
